Legend:
[1] = Photophysical properties in PBS and in SUVs (POPC:POPG 85:15); format: physicochemical; details: for FWHM: fluorescence spectra, intercalated within SUVs; for fluorescence intensity increase upon inserting into lipid bilayers: relative to the values measured in PBS
Excerpt: The photophysical properties of the COE-BY series were studied in phosphate-buffered saline (PBS) and within model lipid bilayers. Small unilamellar vesicles (SUVs) composed of 1-palmitoyl-2-oleoyl-glycero-3-phosphocholine (POPC) and 1-palmitoyl-2-oleoyl-sn-glycero-3-phospho-(1′-rac-glycerol) sodium (POPG) (85:15, mol/mol) were used to simulate the lipid environment in cell membranes. The absorption spectra in PBS for all compounds feature a main peak at ~550 nm, reflecting the presence of the BODIPY subunit (FIG. 9A). One also observes a 5-10 nm red-shift of lowest energy absorption peak with increasing electron-withdrawing strength of the phenyl substituents.
Upon inserting into lipid bilayers, the fluorescence intensity increases over 27-fold for COE-BYPhMe, 30-fold for COE-BYPhOC4, 35-fold for COE-BYPhCN and 40-fold for COE-BYPhNO, relative to the values measured in PBS (FIG. 1c and FIG. S5). The increase in emission intensity reflects a transition to a more rigid and hydrophobic environment. Quantum yields increase to 32% for COE-BYPhMe, 60% for COE-BYPhOC4, 13% for COE-BYPhCN, and 10% for COE-BYPhNO in SUVs from 1% for COE-BYPhMe, 3% for COE-BYPhOC4, and 0.5% for COE-BYPhCN in PBS. The QY of COE-BYPhNO in PBS cannot be accurately determined by using a conventional fluorometer due to its weak fluorescence. The maximum emission wavelengths are redshifted from 587/589 nm (COE-BYPhMe/OC4) to 605/611 nm (COE-BYPhCN/NO) as a result of the decreased HOMO-LUMO energy gaps. […] Furthermore, the fluorescence spectra of COE-BYs intercalated within SUVs show a narrow band at wavelengths between 587 nm and 611 nm, with a full width half maximum (FWHM) linewidth of 52-68 nm (Table 1).

A549 cells = experiment: Two-photon fluorescence imaging and FLIM of stained cells; format: cell-based; details: A549, 1 μM, 24 hours
Excerpt: Fluorescence imaging is usually based on the analysis of fluorescence intensity, which is affected by many factors including dye concentration, laser power, the sensitivity of the detector, and sampling time. The main advantage of fluorescence lifetime imaging (FLIM) is independent of the above experimental conditions, especially the local dye concentration gradients, which makes FLIM an ideal method for studies in living cell models. […] The fluorescence lifetime of COE-BYs could be a function of viscosity after calibration. FLIM makes it possible to produce spatial viscosity maps after staining with COE-BYs. A549 cells were stained with COE-BYPhMe and COE-S6 (1 μM) for 24 hours, respectively. The cell samples were analyzed using two-photon fluorescence imaging and FLIM.

[2] = commercial dyes for comparison; cited from earlier work

Structure (SMILES)	FWHM [1]	ΦF in PBS ([1]; in PBS)	λabs ([1]; in PBS)	λem in PBS ([1]; in PBS)	ΦF in SUVs [1]	λem in SUVs [1]	fluorescence intensity increase upon inserting into lipid bilayers [1]	lifetimes in phasor plot (A549 cells)	two photon absorption cross section area [2]
CC1=C(c2ccc(/C=C/c3cc(OCCCCCC[N+](C)(C)C)c(OCCCCCC[N+](C)(C)C)c(OCCCCCC[N+](C)(C)C)c3)cc2)C(C)=[N+]2C1=C(c1ccc(C#N)cc1)c1c(C)c(-c3ccc(/C=C/c4cc(OCCCCCC[N+](C)(C)C)c(OCCCCCC[N+](C)(C)C)c(OCCCCCC[N+](C)(C)C)c4)cc3)c(C)n1[B-]2(F)F.[I-].[I-].[I-].[I-].[I-].[I-] [COE-BYPhCN]	63 nm	0.5%	550 nm	618 nm	13%	605 nm	> 35 fold	–	–
CC1=C(c2ccc(/C=C/c3cc(OCCCCCC[N+](C)(C)C)c(OCCCCCC[N+](C)(C)C)c(OCCCCCC[N+](C)(C)C)c3)cc2)C(C)=[N+]2C1=C(c1ccc([N+](=O)[O-])cc1)c1c(C)c(-c3ccc(/C=C/c4cc(OCCCCCC[N+](C)(C)C)c(OCCCCCC[N+](C)(C)C)c(OCCCCCC[N+](C)(C)C)c4)cc3)c(C)n1[B-]2(F)F.[I-].[I-].[I-].[I-].[I-].[I-] [COE-BYPhNO]	68 nm	–	556 nm	625 nm	10%	611 nm	> 40 fold	–	–
C[N+](C)(C)CCCCCCOc1cc(/C=C/c2ccc(/C=C/c3ccc(/C=C/c4ccc(/C=C/c5ccc(/C=C/c6cc(OCCCCCC[N+](C)(C)C)c(OCCCCCC[N+](C)(C)C)c(OCCCCCC[N+](C)(C)C)c6)cc5)cc4)cc3)cc2)cc(OCCCCCC[N+](C)(C)C)c1OCCCCCC[N+](C)(C)C.[I-].[I-].[I-].[I-].[I-].[I-] [COE-S6]	–	–	–	–	–	–	–	only single area in the phasor plot	–
CCCCCCCCCCCCCCCCCCN1/C(=C/C=C/C2=[N+](CCCCCCCCCCCCCCCCCC)c3ccccc3C2(C)C)C(C)(C)c2ccccc21.[O-][Cl+3]([O-])([O-])[O-] [DiL, carbocyanine DiL]	–	–	–	–	–	–	–	–	10 GM
CCN(CC)c1ccc2c(-c3ccccc3C(=O)O)c3ccc(=[N+](CC)CC)cc-3oc2c1.[Cl-] [Rhodamine B]	–	–	–	–	–	–	–	–	150 GM
